In US20140179794A1, “LEVOMILNACIPRAN-BASED DRUG FOR FUNCTIONAL RECOVERY AFTER ACUTE NEUROLOGICAL EVENTS” (PIERRE FABRE MEDICAMENT, priority 2011, published 2014):

Test: Binding to the recombinant human alpha1 receptor (prazosin [3H], CHO cell membranes)
Text: The bound fraction was separated by filtration and washing in cooled TRIS+NaCl+KCl buffer. […] The bound fraction was separated by filtration and washing in cooled TRIS+NaCl+KCl buffer. […] The bound fraction was separated by filtration and washing in cooled TRIS buffer.

Structure (SMILES)	Ki
CCN(CC)C(=O)C1(c2ccccc2)CC1CN (centres unmarked) [dextromilnacipran]	3.4 µM
CCN(CC)C(=O)[C@@]1(c2ccccc2)C[C@H]1CN [levomilnacipran]	110 µM
